This is an account of results in PubChem BioAssay (NCI).

Among the test systems are SW-620 colon; SN12C renal; NCI-H226 lung; MALME-3M melanoma; HOP-62 NSCLC; A498 renal; EKVX NSCLC; DU-145 prostate; RXF 393 renal; OVCAR-3 ovarian.
Experiment in all cases: DTP human tumour cell line panel, 48 h

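Five concentrations, 48 hours, 96-well plates. TGI: concentration producing complete growth inhibition.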

What is called TGI is the concentration giving total growth inhibition. The low end stands for greater sensitivity of the cells, the high end for lower sensitivity of the cells. For `COc1cc(OC)c(-c2ccc(OCc3ccccc3)c3c(OC)cc(C)cc23)c2c1C(C)=N[C@H](C)C2`, the TGI in the test on SW-620 colon is 4.68 µM; with SN12C renal, 3.74 µM; in the test on NCI-H226 lung, 5.52 µM; with MALME-3M melanoma, 3.57 µM; with HOP-62 NSCLC it was 4.16 µM; in the test with A498 renal, 3.93 µM. Also, the TGI in the test on EKVX NSCLC was determined as 4.39 µM; in the test with DU-145 prostate, 4.16 µM; in the test on RXF 393 renal, 4.94 µM; in the test on OVCAR-3 ovarian, 4.08 µM.

For the compound `C=C1C(=O)C[C@H]2C(=C)C(=O)O[C@@H]2C2C1CC[C@@]2(C)O` (some centres undefined), the TGI in the test on SW-620 colon is above 100 µM; with SN12C renal, above 100 µM; with NCI-H226 lung, 54.3 µM; in the test on MALME-3M melanoma, 44.9 µM; in the test on HOP-62 NSCLC it was above 100 µM; in the test with A498 renal it was above 100 µM. In addition, the TGI with EKVX NSCLC was above 100 µM; with DU-145 prostate, above 100 µM; in the test on RXF 393 renal it was 43.9 µM; in the test on OVCAR-3 ovarian it was 35.8 µM.

On to `Cc1cc2c(cc1Cl)SC(NS(=O)(=O)c1ccc(Cl)cc1)=NS2(=O)=O`, for which the TGI with SW-620 colon, in the test on SN12C renal, in the test with NCI-H226 lung, in the test with HOP-62 NSCLC, in the test with A498 renal and with EKVX NSCLC was above 100 µM each time. The TGI was above 100 µM with DU-145 prostate, 66.5 µM with RXF 393 renal and above 100 µM with OVCAR-3 ovarian.

Regarding `CC(C)(C)NC(NC(C)(C)C)=C(/C=C(/Cl)[N+](=O)[O-])[N+](=O)[O-]`, the TGI in the test on SN12C renal was above 100 µM; with NCI-H226 lung, above 100 µM; in the test on MALME-3M melanoma, 24.4 µM; with HOP-62 NSCLC, above 100 µM; with A498 renal, above 100 µM; in the test with EKVX NSCLC, above 100 µM. Besides, the results for the TGI in the test on DU-145 prostate, in the test with RXF 393 renal and in the test with OVCAR-3 ovarian were above 100 µM, above 100 µM and 49.7 µM, respectively.

For the compound `O=C(O)CC(CC(=O)O)C(=O)O`, the TGI in the test with SW-620 colon, in the test with SN12C renal, in the test on NCI-H226 lung, with MALME-3M melanoma, in the test with HOP-62 NSCLC and with A498 renal was above 100 µM each time. The TGI in the test on EKVX NSCLC, in the test with DU-145 prostate, in the test with RXF 393 renal and in the test with OVCAR-3 ovarian was above 100 µM each time.

In the case of `Oc1cn(-c2ccc(Cl)cc2)nc1-c1nnc(-c2ccccc2)o1`, the TGI was 36.4 µM in the test with SW-620 colon; above 57 µM in the test with SN12C renal; 30.7 µM in the test with NCI-H226 lung; 31.8 µM in the test with MALME-3M melanoma; 4.64 µM in the test with HOP-62 NSCLC; 56.3 µM with A498 renal. Further, the TGI was above 60.1 µM with EKVX NSCLC, above 60.6 µM in the test with DU-145 prostate, 9.55 µM with RXF 393 renal and 11.6 µM with OVCAR-3 ovarian.

As to `CCCC[C@@H]1CCN2C[C@@H](O)[C@@H](O)[C@@H]2[C@H]1O`, the TGI in the test on SW-620 colon, in the test on SN12C renal, in the test on NCI-H226 lung, in the test with MALME-3M melanoma, in the test with A498 renal and in the test on EKVX NSCLC was above 100 µM in each case. For the same compound, the TGI with DU-145 prostate, with RXF 393 renal and with OVCAR-3 ovarian was above 100 µM throughout.

Turning to `CC(=O)c1ccc(NCc2cc(O)ccc2O)cc1`, the TGI is above 100 µM with SW-620 colon; 92.8 µM in the test with SN12C renal; above 100 µM with NCI-H226 lung; 42 µM in the test on HOP-62 NSCLC; above 100 µM in the test with A498 renal; above 100 µM with EKVX NSCLC. The results for the TGI with DU-145 prostate, in the test on RXF 393 renal and with OVCAR-3 ovarian were 58 µM, 27.9 µM and 19.8 µM, respectively.

As to `CS(=O)(=O)O[C@H]1CN2C[C@@H](O)[C@@H](O)[C@H]2[C@H]1CO`, the TGI in the test on SW-620 colon, in the test on NCI-H226 lung, in the test with MALME-3M melanoma, in the test with HOP-62 NSCLC, with A498 renal and in the test with EKVX NSCLC was above 100 µM each time. The TGI in the test with DU-145 prostate, in the test on RXF 393 renal and with OVCAR-3 ovarian was above 100 µM each time.

Regarding `N#Cc1nc2ccccc2nc1N1CCN(c2ccc([N+](=O)[O-])cc2)CC1`, the TGI in the test with SW-620 colon, in the test on SN12C renal, in the test with NCI-H226 lung, in the test with MALME-3M melanoma, in the test with HOP-62 NSCLC and with A498 renal was above 100 µM each time. Moreover, the TGI in the test on EKVX NSCLC, with DU-145 prostate and in the test with RXF 393 renal was above 100 µM each time.

In the case of `CCOc1cc2c(OCc3ccccc3)cc3c4cc(OC)c(OC)cc4c[n+](C)c3c2cc1OC`, the TGI in the test with SN12C renal is above 100 µM; in the test on NCI-H226 lung, 9.71 µM; in the test with MALME-3M melanoma it was 2.18 µM; with HOP-62 NSCLC it was 19.6 µM; with A498 renal, above 76.3 µM; with EKVX NSCLC it was above 100 µM. In addition, the values for the TGI in the test with DU-145 prostate, with RXF 393 renal and in the test on OVCAR-3 ovarian were 23.2 µM, 9.18 µM and 6.17 µM, respectively.

Consider `CNC(C#N)c1ccc(OC)cc1` (centres undefined), for which the TGI in the test on SW-620 colon, with SN12C renal, in the test with NCI-H226 lung, with MALME-3M melanoma, with A498 renal and in the test on EKVX NSCLC was above 100 µM in each case. Besides, the TGI in the test on DU-145 prostate, in the test on RXF 393 renal and with OVCAR-3 ovarian was above 100 µM each time.

As for `Nc1ccc2c(c1)N(C(=O)c1cc3cc(NC(=O)c4cc5ccccc5o4)ccc3[nH]1)CC2CCl` (centres undefined), the TGI in the test on SW-620 colon was 12.6 µM; with SN12C renal, above 46.4 µM; in the test on NCI-H226 lung, 0.329 µM; in the test on MALME-3M melanoma it was 0.289 µM; with HOP-62 NSCLC, 0.804 µM; in the test on A498 renal, 0.544 µM. Also, the TGI in the test on DU-145 prostate was determined as 2.08 µM; in the test with RXF 393 renal, 0.0496 µM; in the test on OVCAR-3 ovarian, 0.56 µM.

For `CNc1ccc(C(=O)CC(O)CCC(C)C2OC(=O)CC(O)CC(=O)CC(O)CC(O)CC(O)CC(O)CC3(O)CC(O)C(C(=O)NCCN(C)C)C(CC(OC4OC(C)C(O)C(NC(=O)CN5CCN(C)CC5)C4O)/C=C/C=C/C=C/C=C\C=C/C=C/C=C/C2C)O3)cc1` (centres undefined), the TGI was above 100 µM in the test on SW-620 colon; above 100 µM in the test on SN12C renal; above 100 µM in the test on NCI-H226 lung; 8.91 µM in the test on MALME-3M melanoma; above 100 µM in the test on HOP-62 NSCLC; 7.8 µM with A498 renal. Further, the TGI with DU-145 prostate and with RXF 393 renal was above 100 µM in each case.
